Experiments:
cytotoxic T lymphocytes [1] = assay type: in vivo, C57BL/6 mice; conditions: mice infected in the footpad with LCMV-WE; swelling after seven to eight days
cytotoxic T lymphocytes [2] = assay type: in vivo, C57BL/6 mice; conditions: splenocytes eight days after i.v. LCMV-WE; EL4 cells sensitized with GP33-41 or NP peptide
CD8+ T lymphocytes = assay: Proliferation of the CD8+ T lymphocytes in vivo (FACS of splenocytes); parameters: species or system mice; conditions: 200 pfu LCMV-WE i.v., anti-CD8 FACS
LCMV = assay type: in vivo, mice; conditions: day D8; 200 pfu LCMV i.v.
[3] = system: antibodies specific for the LCMV nucleoprotein and glycoprotein; assay: Antibody response to LCMV nucleoprotein and glycoprotein (ELISA); assay type: in vivo, mice; conditions: ELISA after four and eight weeks
Procedure: The antibodies specific for the LCMV nucleoprotein and for the LCMV glycoprotein were evaluated after four and eight weeks by an ELISA test as described in O. Planz, P. Seiler, H. Hengartner and R. M. Zinkernagel, Nature, 382, 629 […].

[4] = system: ubiquitin proteasome pathway; assay: Degradation of the proteins with a short lifespan (35S pulse-chase); assay type: cell-based; conditions: cells cultured overnight with variable concentration
Procedure: For these analyses, the cells were cultured overnight in the presence of a variable concentration of ritonavir, preincubated in a medium free of methionine and cysteine for 1 hour, subjected to labelling with ^35S-methionine and ^35S-cysteine for one hour, washed in PBS and subjected to a chase for one hour. After one hour, TCA (trichloroacetic acid at 10% final) was added to the supernatant and the radioactivity of the supernatant not precipitated with TCA was quantified with a Lumaplate (Topcount Packard) (FIG. 4A).

[5] = target: T1, 20S proteasomes isolated from murine B8 fibroblasts (Mus musculus, UniProt O55234+P70195+Q60692); assay: Hydrolysis of fluorogenic substrates by isolated 20S proteasomes; assay type: biochemical
T1 construct: 20S proteasomes isolated from murine B8 fibroblasts; endogenous in cells; host or cells: murine B8 fibroblasts; 20S proteasome purified from the cells
Procedure: FIGS. 4B, 4C and 4D show the hydrolysis of the fluorogenic substrate (100 μM Suc-LLVY-MCA, 100 μM (Z)-GGL-MCA and 400 μM Bz-VGR-MCA) of the 20S proteasomes isolated from murine B8 fibroblasts, as a function of variable concentrations of ritonavir and of LLnL (N-acetyl-L-leucinyl-L-leucinal-L-norleucinal, known inhibitor of the proteasome). The results are reported for one hour of digestion with the 20S proteasome (500 ng) in a final volume of 100 μl. The values were located in a linear detection domain and are the mean values of triplicates with standard errors of less than 3%.
The hydrolysis of Suc-LLVY-MCA by the 20S murine proteasomes was tested according to the method described in Example 4.2. under identical conditions except for the fact that a different batch of purified proteasomes was used. The hydrolysis of Suc-LLVY-MCA was measured in the presence of increasing concentrations of ritonavir, nelfinavir (Roche), saquinavir (mesylate) and indinavir (active ingredient of Crixivan® marketed by Merck and Sharp and Dohme). The HIV protease inhibitors were dissolved beforehand in ethanol, methanol, DMSO and water respectively, for use in vitro (FIG. 4E).

class I molecules = assay: Maturation and surface expression of class I molecules; assay type: cell-based
Hybridoma (MHC-I) = assay: IL-2 release by hybridoma FT6.9 cocultured with NOD pancreatic islets; assay type: cell-based, NOD mice
Procedure: (§1) Ritonavir (0.6 mg per 10 g of body weight per day) or a placebo (phosphate buffer PBS) was administered by the intraperitoneal route to NOD mice. The pancreatic islets were removed and cultured for 24 hours in the presence or in the absence of 2.5 μg/ml of ritonavir. The cells were then cocultured with MHC-1-restricted hybridomas (FT6.9 and FT7.9 for 24 hours). The quantity of IL-2 was assayed in the supernatant. The following tables present the quantities of IL-2 measured by a test of proliferation (cpm×10^−3).

Hybridoma ETG.9 (MHC-I) = assay: as above; assay type: cell-based, NOD mice
Procedure: as §1

[6] = Appearance of type 1 diabetes in NOD mice; assay type: in vivo; conditions: ritonavir versus diluent
Procedure: FIG. 5 represents the percentage of nondiabetic NOD mice as a function of time, in the case of a treatment with ritonavir compared with administration of a diluent.
Ritonavir (0.6 mg per 10 g of body weight per day) or a placebo (phosphate buffer PBS) was administered by the intraperitoneal route to NOD mice. The pancreatic islets were removed and cultured for 24 hours in the presence or in the absence of 2.5 μg/ml of ritonavir. The cells were then cocultured with MHC-1-restricted hybridomas (FT6.9 and FT7.9 for 24 hours). The quantity of IL-2 was assayed in the supernatant.

hepatitis C virus = assay: Clinical case: patient doubly infected with HIV and HCV treated with ritonavir; assay type: in vivo, human
Source text: A patient who is a drug addict is monitored for a double infection with HIV and HCV, discovered in 1986 but undoubtedly prior to this date. The progression of the HIV infection is slow, with a viremia established at around 4 Log HIV RNA copies/ml. The level of CD4 T lymphocytes dropped with a first opportunistic lung infection. […] An HIV protease inhibitor, ritonavir, was introduced into the therapy of the patient and followed since then. The HIV viremia became undetectable during the two months which followed the beginning of the treatment before returning to the previous level from the fourth month. The level of CD4 T lymphocytes increased during this period and continued to increase even after the reappearance of the HIV viremia. By contrast, the HCV viremia became negative at the 7th month after the introduction of ritonavir (FIG. 7), and has remained so two years later.

[7] = system: M113 cells presenting the MART-1 antigen; assay: Proliferation of M77-84 T lymphocytes stimulated by treated M113 cells
[8] = system: M113 cells presenting the MART-1 antigen; assay: TNFα production by M77-84 T lymphocytes in response to treated M113 melanoma cells; conditions: M113 cells cultured 24 hours with various concentrations
[9] = 100 μM substrate, one hour digestion, 500 ng 20S proteasome
[10] = in vivo PBS, in vitro ritonavir 2.5 μg/ml
[11] = in vivo ritonavir, in vitro PBS
[12] = in vivo ritonavir, in vitro ritonavir

Q: With `CC(C)c1nc(CN(C)C(=O)N[C@H](C(=O)N[C@@H](Cc2ccccc2)C[C@H](O)[C@H](Cc2ccccc2)NC(=O)OCc2cncs2)C(C)C)cs1` [ritonavir] as the molecule, how does the “swelling of the footpad after injection of LCMV” value (cytotoxic T lymphocytes [1]) read?
A: markedly inhibited

Q: And the “lysis of the target cells (direct lysis ex vivo after systemic infection)” value (cytotoxic T lymphocytes [2])?
A: reduced

Q: And the “proliferation of the CD8+ T lymphocytes in response to the LCMV virus” value (CD8+ T lymphocytes)?
A: Inhibition

Q: What about the “viral clearance (titre of viruses in the spleen)” value (LCMV) of the same molecule?
A: decrease in the viral clearance

Q: And the “capacity for synthesizing anti-virus antibodies” value [3]?
A: does not reduce

Q: And the “degradation of proteins with a short lifespan” value [4]?
A: inhibits in a dose-dependent manner

Q: And the “hydrolysis of the fluorogenic substrate Suc-LLVY-MCA” value [5, 9]?
A: potent inhibitor

Q: And the “hydrolysis of the substrate (Z)-GGL-MCA” value [5, 9]?
A: hardly affected

Q: And the “cleavage of the substrate Bz-VGR-MCA ("trypsin" type activity)” value ([5]; 400 μM substrate, one hour digestion, 500 ng 20S proteasome)?
A: substantially increased

Q: And the “"chimotrypsin-like" activity (hydrolysis of Suc-LLVY-MCA), comparison of four HIV-1 protease inhibitors” value ([5]; different batch of purified proteasomes, increasing concentrations)?
A: inhibits

Q: What about the “"chymotrypsin-like" activity of the proteasome” value ([5]; summary statement) of the same molecule?
A: inhibited

Q: What about the “"trypsin" activity of the proteasome” value ([5]; summary statement) of the same molecule?
A: increased

Q: And the “expression at the surface of the class I molecules” value (class I molecules)?
A: not significantly blocked

Q: And the “maturation of the class I molecules in the endoplasmic reticulum (resistance to endoglycosidase-H)” value (class I molecules)?
A: not significantly blocked

Q: What about the “percentage in brackets (reduction of IL-2 versus PBS/PBS)” value (Hybridoma (MHC-I); [10]) of the same molecule?
A: 37%

Q: What about the “percentage in brackets (reduction of IL-2 versus PBS/PBS)” value (Hybridoma (MHC-I); [11]) of the same molecule?
A: 47%

Q: And the “percentage in brackets (reduction of IL-2 versus PBS/PBS)” value (Hybridoma (MHC-I); [12])?
A: 31%

Q: What about the “recognition ex vivo of Langerhan's cells by cytotoxic T clones” value (Hybridoma ETG.9 (MHC-I); cells isolated from NOD mice treated with ritonavir, statement covers both hybridomas) of the same molecule?
A: no longer recognized

Q: And the “quantity of IL-2 measured by a test of proliferation” value (“quantity of IL-2 measured” below) (Hybridoma ETG.9 (MHC-I); [10])?
A: 40 cpm×10^−3

Q: What about the “quantity of IL-2 measured” value (Hybridoma ETG.9 (MHC-I); [11]) of the same molecule?
A: 34 cpm×10^−3

Q: What about the “quantity of IL-2 measured” value (Hybridoma ETG.9 (MHC-I); [12]) of the same molecule?
A: 44 cpm×10^−3

Q: What about the “appearance of type 1 diabetes” value [6] of the same molecule?
A: delays

Q: What about the HCV viremia (hepatitis C virus; at the 7th month after introduction of ritonavir, remained so two years later) of the same molecule?
A: negative

Q: What about the HIV viremia (hepatitis C virus; during the two months after beginning of treatment, returned to previous level from the fourth month) of the same molecule?
A: undetectable

Q: What about the “level of CD4 T lymphocytes” value (hepatitis C virus; one patient, during treatment) of the same molecule?
A: increased

Q: And the “presentation of MART-1 antigen: proliferation of M77-84 T lymphocytes” value ([7]; M113 cells cultured 24 hours with 0.1-5 μg/ml, proliferation after 48 hours)?
A: inhibition

Q: And the inhibition of proliferation ([7]; antigen presenting cells cultured in sera of HIV-negative volunteers obtained 3 hours after a single oral dose of 500 mg)?
A: Up to 70%

Q: What about the “presentation of MART-1 antigen: release of TNFα by M77-84 T lymphocytes” value [8] of the same molecule?
A: inhibition

Source: patent publication US6506555B1, “Use of HIV protease inhibiting compounds” (Institut National de la Sante et de la Recherche Medicale …, priority 1998, dated 2003)
